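All cell lines were grown in 96-well plates and treated with compound for 48 hours. GI50: concentration for 50% inhibition of growth.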 Calls of active or inactive are those of the source. Cut-off read from the data, not from the text of the source: active = GI50 up to about 1.1 µM and inactive = higher.
Columns and labels:
Experiment in all cases: NCI tumour cell line growth inhibition, 48 h
HOP-92 = test system: HOP-92
UACC-257 = test system: UACC-257
UACC-62 = test system: UACC-62
HCC 2998 = test system: HCC 2998
LOX IMVI = test system: LOX IMVI
SNB-75 = test system: SNB-75
SNB-78 = test system: SNB-78
TK-10 = test system: TK-10
NCI-H226 = test system: NCI-H226
XF498 = test system: XF498
SK-OV-3 = test system: SK-OV-3
NCI-H522 = test system: NCI-H522
CAKI-1 = test system: CAKI-1
Malme-3M = test system: Malme-3M
DLD-1 = test system: DLD-1

Measured: GI50

Nc1cc(-c2ccccc2)nn1-c1nsc2ccccc12
inactive: HOP-92 63.4 µM | UACC-257 > 100 µM | UACC-62 > 100 µM | HCC 2998 > 100 µM | LOX IMVI 97.5 µM | SNB-75 19.7 µM | SNB-78 68.1 µM | TK-10 > 100 µM

CCC(=C(C#N)C#N)c1cc(OC)c(OC)c(OC)c1
inactive: NCI-H226 > 100 µM | HOP-92 95.1 µM | XF498 > 100 µM | SK-OV-3 > 100 µM | NCI-H522 > 100 µM | CAKI-1 > 100 µM | Malme-3M > 100 µM | UACC-62 > 100 µM | HCC 2998 > 100 µM | LOX IMVI > 100 µM | DLD-1 > 100 µM | TK-10 > 100 µM

CC1(C)Cc2c(C#N)c(N)c3c(c2CO1)C(=O)OC3=O
inactive: NCI-H226 > 100 µM | XF498 > 100 µM | SK-OV-3 > 100 µM | NCI-H522 > 100 µM | CAKI-1 > 100 µM | Malme-3M > 100 µM | UACC-62 > 100 µM | HCC 2998 > 100 µM | LOX IMVI > 100 µM | TK-10 > 100 µM
